Assay results as given in ChEMBL document CHEMBL1157898 (Bioorg Med Chem Lett, 2010).
The source made the active and inactive calls. The rule behind the calls is not given here.

Assays:
[1] = molecular target: T1, Interleukin-1 receptor-associated kinase 4 (Homo sapiens) (UniProt Q9NWZ3); experiment: Inhibition of IRAK4 at 5 uM
T1 sequence (whole entry): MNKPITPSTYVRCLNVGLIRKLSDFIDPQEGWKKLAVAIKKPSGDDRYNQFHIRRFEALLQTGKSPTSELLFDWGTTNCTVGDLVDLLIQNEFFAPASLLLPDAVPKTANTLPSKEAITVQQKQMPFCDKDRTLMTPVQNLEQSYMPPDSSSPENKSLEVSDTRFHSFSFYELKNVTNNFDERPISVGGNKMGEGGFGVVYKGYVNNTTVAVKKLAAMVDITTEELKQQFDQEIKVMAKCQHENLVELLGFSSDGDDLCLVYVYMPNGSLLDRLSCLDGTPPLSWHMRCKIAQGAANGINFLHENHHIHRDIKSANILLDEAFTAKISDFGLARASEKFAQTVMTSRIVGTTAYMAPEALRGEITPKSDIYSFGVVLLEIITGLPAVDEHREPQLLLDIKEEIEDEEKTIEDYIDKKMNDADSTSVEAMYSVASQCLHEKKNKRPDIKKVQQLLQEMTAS

[2] = molecular target: Serine/threonine-protein kinase MARK1 (Homo sapiens) (UniProt Q9P0L2); experiment: Inhibition of MARK1
Sequence of Serine/threonine-protein kinase MARK1 (Homo sapiens) (Q9P0L2 whole entry, looked up): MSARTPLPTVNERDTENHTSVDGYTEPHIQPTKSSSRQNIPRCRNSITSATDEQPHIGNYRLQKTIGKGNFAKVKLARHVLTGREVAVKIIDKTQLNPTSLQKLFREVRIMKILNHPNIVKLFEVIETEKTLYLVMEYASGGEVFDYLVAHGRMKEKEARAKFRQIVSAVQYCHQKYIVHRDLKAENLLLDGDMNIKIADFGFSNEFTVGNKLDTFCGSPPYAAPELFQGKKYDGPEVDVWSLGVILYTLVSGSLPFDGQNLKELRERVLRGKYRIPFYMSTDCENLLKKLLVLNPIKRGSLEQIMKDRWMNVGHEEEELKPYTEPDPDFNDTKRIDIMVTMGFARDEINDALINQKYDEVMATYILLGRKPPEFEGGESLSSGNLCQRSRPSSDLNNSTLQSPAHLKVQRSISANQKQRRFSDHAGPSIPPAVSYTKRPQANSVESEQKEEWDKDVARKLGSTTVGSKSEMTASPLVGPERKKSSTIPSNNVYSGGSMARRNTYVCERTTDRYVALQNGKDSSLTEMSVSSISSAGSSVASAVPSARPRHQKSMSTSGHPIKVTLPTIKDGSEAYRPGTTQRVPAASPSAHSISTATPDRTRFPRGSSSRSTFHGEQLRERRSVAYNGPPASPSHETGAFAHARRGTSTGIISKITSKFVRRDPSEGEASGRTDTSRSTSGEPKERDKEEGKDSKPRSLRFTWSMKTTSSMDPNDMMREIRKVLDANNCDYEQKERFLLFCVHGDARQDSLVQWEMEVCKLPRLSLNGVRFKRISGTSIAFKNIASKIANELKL

[3] = molecular target: Ribosomal protein S6 kinase alpha-5 (Homo sapiens) (UniProt O75582); experiment: Inhibition of MSK1
Sequence of Ribosomal protein S6 kinase alpha-5 (Homo sapiens) (O75582 whole entry, looked up): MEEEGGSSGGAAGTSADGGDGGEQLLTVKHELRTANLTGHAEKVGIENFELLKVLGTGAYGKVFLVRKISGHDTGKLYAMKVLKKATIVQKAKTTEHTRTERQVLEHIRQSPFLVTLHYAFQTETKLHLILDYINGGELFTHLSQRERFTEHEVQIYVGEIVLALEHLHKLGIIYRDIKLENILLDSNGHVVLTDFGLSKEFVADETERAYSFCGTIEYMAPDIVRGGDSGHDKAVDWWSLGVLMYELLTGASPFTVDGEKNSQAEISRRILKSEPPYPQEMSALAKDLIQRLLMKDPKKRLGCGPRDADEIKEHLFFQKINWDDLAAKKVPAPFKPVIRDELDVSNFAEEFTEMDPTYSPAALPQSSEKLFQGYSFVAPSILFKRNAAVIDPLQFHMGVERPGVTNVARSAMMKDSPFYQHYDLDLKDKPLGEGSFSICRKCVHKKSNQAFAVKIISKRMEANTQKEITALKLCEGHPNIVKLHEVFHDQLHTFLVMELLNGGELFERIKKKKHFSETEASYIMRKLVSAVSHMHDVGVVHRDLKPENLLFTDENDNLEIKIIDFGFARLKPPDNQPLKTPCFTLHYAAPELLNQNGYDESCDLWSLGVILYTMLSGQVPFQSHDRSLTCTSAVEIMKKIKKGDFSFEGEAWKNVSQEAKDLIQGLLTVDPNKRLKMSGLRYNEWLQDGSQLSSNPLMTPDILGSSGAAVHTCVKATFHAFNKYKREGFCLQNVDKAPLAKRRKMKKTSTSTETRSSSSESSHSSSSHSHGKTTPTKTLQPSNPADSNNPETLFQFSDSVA

[4] = molecular target: Mitogen-activated protein kinase 14 (Homo sapiens) (UniProt Q16539); experiment: Inhibition of P38alpha
[5] = molecular target: Ribosomal protein S6 kinase beta-1 (Homo sapiens) (UniProt P23443); experiment: Inhibition of p70S6K
[6] = Inhibition of PKA
[7] = molecular target: Protein kinase C beta type (Homo sapiens) (UniProt P05771); experiment: Inhibition of PKCbeta2
Sequence of Protein kinase C beta type (Homo sapiens) (P05771 2-671 limits assumed): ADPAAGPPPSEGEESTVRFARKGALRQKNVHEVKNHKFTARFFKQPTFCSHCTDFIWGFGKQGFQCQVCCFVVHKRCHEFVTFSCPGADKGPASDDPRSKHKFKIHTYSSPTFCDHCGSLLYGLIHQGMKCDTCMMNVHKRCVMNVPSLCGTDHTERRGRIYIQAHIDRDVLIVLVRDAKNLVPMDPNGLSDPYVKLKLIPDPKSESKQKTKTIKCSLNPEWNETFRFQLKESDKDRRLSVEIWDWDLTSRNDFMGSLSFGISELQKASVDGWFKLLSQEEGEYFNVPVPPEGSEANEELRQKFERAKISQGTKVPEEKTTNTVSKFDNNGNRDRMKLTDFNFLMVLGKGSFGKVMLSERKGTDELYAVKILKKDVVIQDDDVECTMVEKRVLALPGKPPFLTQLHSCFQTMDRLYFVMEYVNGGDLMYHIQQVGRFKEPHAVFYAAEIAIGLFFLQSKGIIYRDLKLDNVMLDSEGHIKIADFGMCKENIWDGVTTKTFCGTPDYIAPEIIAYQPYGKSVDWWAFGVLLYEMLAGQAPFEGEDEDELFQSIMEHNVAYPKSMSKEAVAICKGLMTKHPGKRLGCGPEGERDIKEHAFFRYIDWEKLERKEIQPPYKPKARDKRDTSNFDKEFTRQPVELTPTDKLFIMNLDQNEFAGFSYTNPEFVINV

[8] = molecular target: T2, Serine/threonine-protein kinase D2 (Homo sapiens) (UniProt Q9BZL6); experiment: Inhibition of PKD2
T2 sequence (whole entry): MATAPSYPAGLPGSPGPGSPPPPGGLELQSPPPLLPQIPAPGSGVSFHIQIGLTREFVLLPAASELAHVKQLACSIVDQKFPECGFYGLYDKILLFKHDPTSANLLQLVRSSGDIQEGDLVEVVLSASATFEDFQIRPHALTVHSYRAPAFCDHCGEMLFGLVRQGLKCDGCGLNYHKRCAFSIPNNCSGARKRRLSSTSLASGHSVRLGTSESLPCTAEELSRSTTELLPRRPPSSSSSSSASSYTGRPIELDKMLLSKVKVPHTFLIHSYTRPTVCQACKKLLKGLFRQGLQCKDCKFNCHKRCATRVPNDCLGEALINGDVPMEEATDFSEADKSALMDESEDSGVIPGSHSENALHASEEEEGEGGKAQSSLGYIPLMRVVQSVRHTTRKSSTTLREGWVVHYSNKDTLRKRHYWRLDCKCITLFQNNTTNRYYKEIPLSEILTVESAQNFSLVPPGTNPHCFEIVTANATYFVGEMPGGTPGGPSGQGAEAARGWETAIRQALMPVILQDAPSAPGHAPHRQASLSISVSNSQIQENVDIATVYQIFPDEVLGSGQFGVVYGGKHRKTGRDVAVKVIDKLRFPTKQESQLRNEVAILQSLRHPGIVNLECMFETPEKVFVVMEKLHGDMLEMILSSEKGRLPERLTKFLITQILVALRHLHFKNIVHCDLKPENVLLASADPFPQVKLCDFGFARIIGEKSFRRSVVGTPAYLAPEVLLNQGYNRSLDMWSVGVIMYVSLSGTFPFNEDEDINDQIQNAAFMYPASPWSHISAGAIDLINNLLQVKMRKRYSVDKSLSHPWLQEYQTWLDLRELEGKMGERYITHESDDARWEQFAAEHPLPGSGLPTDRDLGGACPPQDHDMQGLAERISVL

[9] = molecular target: Rho-associated protein kinase 2 (Homo sapiens) (UniProt O75116); experiment: Inhibition of ROCK2
Sequence of Rho-associated protein kinase 2 (Homo sapiens) (O75116 whole entry, looked up): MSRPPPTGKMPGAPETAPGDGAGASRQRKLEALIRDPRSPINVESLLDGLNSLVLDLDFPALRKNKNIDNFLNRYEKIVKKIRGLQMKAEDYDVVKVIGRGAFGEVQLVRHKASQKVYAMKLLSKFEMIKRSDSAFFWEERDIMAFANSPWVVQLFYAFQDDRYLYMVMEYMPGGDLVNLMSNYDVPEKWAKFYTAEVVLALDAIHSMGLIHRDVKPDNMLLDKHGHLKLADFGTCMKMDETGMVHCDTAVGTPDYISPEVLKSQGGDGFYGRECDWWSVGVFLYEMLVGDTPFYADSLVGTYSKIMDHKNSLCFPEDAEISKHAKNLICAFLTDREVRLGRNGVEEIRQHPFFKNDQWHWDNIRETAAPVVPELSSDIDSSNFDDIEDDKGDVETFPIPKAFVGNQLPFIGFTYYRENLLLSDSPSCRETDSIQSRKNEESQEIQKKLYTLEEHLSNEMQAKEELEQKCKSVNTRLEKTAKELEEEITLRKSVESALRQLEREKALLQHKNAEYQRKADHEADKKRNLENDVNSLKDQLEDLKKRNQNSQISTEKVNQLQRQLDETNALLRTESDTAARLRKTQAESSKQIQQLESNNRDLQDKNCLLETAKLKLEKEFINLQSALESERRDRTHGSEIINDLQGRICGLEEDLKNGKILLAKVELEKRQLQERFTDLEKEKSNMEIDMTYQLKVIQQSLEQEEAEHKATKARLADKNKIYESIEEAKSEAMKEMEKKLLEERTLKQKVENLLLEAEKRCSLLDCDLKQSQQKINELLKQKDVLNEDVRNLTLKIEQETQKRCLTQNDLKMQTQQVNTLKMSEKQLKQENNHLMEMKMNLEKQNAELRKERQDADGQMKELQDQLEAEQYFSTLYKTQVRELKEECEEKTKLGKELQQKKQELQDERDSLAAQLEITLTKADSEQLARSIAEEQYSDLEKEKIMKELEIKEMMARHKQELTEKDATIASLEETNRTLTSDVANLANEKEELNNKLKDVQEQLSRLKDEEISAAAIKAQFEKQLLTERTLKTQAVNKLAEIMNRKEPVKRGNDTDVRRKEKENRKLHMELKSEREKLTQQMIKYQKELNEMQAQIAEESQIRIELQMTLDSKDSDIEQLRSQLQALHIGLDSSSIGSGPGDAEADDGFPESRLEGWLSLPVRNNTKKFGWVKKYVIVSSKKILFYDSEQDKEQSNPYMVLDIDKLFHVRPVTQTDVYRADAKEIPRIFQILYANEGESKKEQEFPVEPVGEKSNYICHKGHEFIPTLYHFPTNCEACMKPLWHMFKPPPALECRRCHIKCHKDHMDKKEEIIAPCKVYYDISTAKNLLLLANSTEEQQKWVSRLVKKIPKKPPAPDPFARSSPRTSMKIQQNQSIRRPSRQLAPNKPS

[10] = molecular target: T3, MAP kinase-activated protein kinase 5 (Homo sapiens) (UniProt Q8IW41); experiment: Inhibition of PRAK
T3 sequence (whole entry): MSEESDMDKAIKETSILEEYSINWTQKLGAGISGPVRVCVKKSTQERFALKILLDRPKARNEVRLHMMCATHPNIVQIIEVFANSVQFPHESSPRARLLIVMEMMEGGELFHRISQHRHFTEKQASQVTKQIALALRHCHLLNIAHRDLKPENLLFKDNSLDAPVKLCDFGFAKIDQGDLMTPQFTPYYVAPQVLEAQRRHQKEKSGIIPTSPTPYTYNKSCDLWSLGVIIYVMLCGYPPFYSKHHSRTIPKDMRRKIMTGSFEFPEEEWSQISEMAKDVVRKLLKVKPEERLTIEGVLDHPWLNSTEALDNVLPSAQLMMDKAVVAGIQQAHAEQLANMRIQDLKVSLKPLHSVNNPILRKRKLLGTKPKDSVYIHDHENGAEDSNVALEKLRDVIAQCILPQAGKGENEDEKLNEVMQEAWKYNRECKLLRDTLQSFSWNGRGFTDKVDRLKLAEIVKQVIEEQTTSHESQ

[11] = molecular target: Ribosomal protein S6 kinase alpha-1 (Homo sapiens) (UniProt Q15418); experiment: Inhibition of RSK1
Sequence of Ribosomal protein S6 kinase alpha-1 (Homo sapiens) (Q15418 whole entry): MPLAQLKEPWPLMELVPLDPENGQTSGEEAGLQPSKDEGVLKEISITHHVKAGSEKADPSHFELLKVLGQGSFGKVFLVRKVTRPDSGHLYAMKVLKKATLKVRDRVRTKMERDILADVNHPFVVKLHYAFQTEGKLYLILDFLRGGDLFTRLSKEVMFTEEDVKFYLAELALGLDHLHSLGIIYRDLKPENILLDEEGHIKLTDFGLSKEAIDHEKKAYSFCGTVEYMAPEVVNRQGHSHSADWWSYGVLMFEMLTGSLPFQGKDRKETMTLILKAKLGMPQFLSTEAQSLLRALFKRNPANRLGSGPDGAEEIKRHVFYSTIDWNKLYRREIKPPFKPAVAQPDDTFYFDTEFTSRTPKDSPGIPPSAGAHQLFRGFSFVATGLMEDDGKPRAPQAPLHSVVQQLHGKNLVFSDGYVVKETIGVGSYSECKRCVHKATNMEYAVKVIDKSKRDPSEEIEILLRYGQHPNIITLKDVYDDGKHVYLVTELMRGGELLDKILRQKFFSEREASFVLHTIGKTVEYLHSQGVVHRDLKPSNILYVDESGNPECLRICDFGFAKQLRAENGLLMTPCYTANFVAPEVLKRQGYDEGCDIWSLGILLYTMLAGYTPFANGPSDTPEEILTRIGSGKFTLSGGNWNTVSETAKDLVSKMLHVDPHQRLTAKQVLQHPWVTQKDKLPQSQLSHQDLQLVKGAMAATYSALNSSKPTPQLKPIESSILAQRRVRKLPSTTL

[12] = molecular target: T4, Serine/threonine-protein kinase Sgk1 (Homo sapiens) (UniProt O00141); experiment: Inhibition of SGK1
T4 sequence (whole entry): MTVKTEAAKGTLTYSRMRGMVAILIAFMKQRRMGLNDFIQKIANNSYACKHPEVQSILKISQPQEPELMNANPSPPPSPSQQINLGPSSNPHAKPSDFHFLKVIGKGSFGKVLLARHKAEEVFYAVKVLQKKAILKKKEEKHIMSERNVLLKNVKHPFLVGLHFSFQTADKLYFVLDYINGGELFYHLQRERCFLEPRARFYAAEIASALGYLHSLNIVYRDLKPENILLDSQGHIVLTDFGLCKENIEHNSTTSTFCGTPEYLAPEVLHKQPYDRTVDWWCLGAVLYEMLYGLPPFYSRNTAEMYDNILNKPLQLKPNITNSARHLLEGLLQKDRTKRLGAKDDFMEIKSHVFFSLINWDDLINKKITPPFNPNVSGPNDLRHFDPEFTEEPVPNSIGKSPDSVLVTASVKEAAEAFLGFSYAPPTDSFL

[13] = molecular target: Tyrosine-protein kinase Fyn (Homo sapiens) (UniProt P06241); experiment: Inhibition of FYN
Sequence of Tyrosine-protein kinase Fyn (Homo sapiens) (P06241 2-537 limits assumed): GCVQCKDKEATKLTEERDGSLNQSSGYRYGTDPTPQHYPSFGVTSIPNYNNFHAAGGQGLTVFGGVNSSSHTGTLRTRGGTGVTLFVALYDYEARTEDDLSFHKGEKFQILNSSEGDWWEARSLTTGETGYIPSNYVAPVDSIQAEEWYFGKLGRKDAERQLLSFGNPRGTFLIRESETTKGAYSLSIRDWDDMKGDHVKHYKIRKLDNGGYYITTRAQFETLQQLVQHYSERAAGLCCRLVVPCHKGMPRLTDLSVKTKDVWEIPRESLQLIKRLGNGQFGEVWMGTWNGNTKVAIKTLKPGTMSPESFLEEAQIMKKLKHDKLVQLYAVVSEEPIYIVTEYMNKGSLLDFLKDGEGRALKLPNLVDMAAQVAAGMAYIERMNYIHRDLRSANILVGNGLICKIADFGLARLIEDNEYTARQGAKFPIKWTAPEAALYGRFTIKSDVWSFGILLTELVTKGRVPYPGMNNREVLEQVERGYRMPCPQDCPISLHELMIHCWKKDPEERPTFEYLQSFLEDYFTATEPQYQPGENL

[14] = molecular target: T5, Gamma-secretase (Homo sapiens) (UniProt Q96BI3+Q9NZ42+Q8WW43+P49768+Q92542+P49810); experiment: Inhibition of gamma secretase mediated amyloid beta 38 generation in human H4 cells at 10 uM by LPECL assay; values are per cent of control
[15] = molecular target: T5, Gamma-secretase (Homo sapiens); experiment: Inhibition of gamma secretase mediated amyloid beta 42 generation in human H4 cells at 10 uM by LPECL assay; values are per cent of control

Structure (SMILES): CCN(CC)CCNC(=O)c1c(C)[nH]c(/C=C2\C(=O)Nc3ccc(F)cc32)c1C [SUNITINIB]
- inhibition [1]: inactive
- inhibition [2]: inactive
- inhibition [3]: inactive
- inhibition [4]: inactive
- inhibition [5]: inactive
- inhibition [6]: inactive
- inhibition [7]: inactive
- inhibition [8]: inactive
- inhibition [9]: inactive
- inhibition [10]: inactive
- inhibition [11]: inactive
- inhibition [12]: inactive
- inhibition [13]: inactive
- residual activity [14]: 26%
- residual activity [15]: 26%
